EC50 data for twelve compounds are collected here from patent US11623924B2, “Modulators of alpha-1 antitrypsin” (Vertex Pharmaceuticals Incorporated, priority 2018, dated 2023).

Each structure is given as a SMILES string.

For this test, the target named is T1, NL20 human bronchial epithelial cells expressing human Z-AAT (Homo sapiens, UniProt P01009, E366K).
T1 construct: expressed in transfected cells; host or cells: NL20 human bronchial epithelial cells (NL20-SI line, doxycycline added)
T1 sequence (P01009 25-418 E366K): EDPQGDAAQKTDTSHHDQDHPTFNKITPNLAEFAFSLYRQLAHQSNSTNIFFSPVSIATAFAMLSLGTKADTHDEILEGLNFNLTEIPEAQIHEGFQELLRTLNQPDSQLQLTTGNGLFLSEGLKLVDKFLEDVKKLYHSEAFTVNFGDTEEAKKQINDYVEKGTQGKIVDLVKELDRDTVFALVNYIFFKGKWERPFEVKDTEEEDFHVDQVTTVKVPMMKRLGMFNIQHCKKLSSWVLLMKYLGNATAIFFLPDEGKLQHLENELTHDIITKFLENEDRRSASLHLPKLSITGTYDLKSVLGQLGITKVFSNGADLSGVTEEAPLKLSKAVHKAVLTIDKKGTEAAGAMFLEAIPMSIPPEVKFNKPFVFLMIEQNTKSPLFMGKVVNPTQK
Nature of the test: AAT Function Assay (MSD Assay NL20-SI Cell Line). As to conditions: functionally active AAT (AAT-hNE complex) in supernatant of NL20 cells expressing human Z-AAT; read-out: NL20 Func. (EC50). The format is cell-based. As to the method:
A. AAT Function Assay (MSD Assay NL20-SI Cell Line)
Alpha-1 antitrypsin (AAT) is a SERPIN (serine protease inhibitor) that inactivates enzymes by binding to them covalently. This assay measured the amount of functionally active AAT in a sample in the presence of the disclosed compounds 1-215 by determining the ability of AAT to form an irreversible complex with human neutrophil Elastase (hNE). In practice, the sample (cell supernatant, blood sample, or other) was incubated with excess hNE to allow AAT-Elastase complex to be formed with all functional AAT in the sample. This complex was then captured to a microplate coated with an anti-AAT antibody. The complex captured to the plate was detected with a labeled anti-Elastase antibody and quantitated using a set of AAT standards spanning the concentration range present in the sample. Meso Scale Discovery (MSD) plate reader, Sulfo-tag labeling, and microplates were used to provide high sensitivity and wide dynamic range.
• 1. Harvest NL20 human bronchial epithelial cells expressing human Z-AAT in OptiMEM™ containing Pen/Strep (P/S) • 2. Seed at 16,000 cells/well in 30 μL (384 well plate) • 3. Centrifuge plates briefly up to speed (1200 rpm) and place into 37° C. incubator overnight Day 2: Compound Addition and Coating Plates with Capture Antibody Compound Addition: • 1. Dispense 40 μL of OptiMEM™ (P/S) with doxycycline (1:1000 stock=0.1 μM final) to each well of the compound plate using a multidrop Combi in hood • 2. Remove cell plate from incubator, flip/blot and take immediately to Bravo to transfer compounds • 3. Return plates to incubator overnight Coat MSD Plates • 1. Dilute capture antibody (Polyclonal Goat anti-AAT) to 5 μg/mL (1:200) in PBS (no BSA). • 2. Dispense 25 μL of diluted capture antibody into all wells of MSD 384-well High Bind plate using the Multidrop equipped with a standard cassette. • 3. Incubate overnight at 4° C. Prepare Blocker A (BSA) Solutions • 1. Prepare solution of 5% MSD Blocker A (BSA) following the manufacturer's instructions. • 2. Further dilute the 5% MSD Blocker A in PBS to 1% (Blocker A) as needed. Day 3: Run MSD Assay
Block Plates • 1. Wash plate 1× with 50 μL Wash buffer (PBS+0.5% Tween 20), and adds 35 μL 5% Block A buffer to block non-specific binding on washer dispenser • 2. Rotate plates on shaker for 1 hour at 600 rpm
Prepare M-AAT Standards • 1. Dilute M-AAT stock to 1.6 μg/mL in 1% BSA Blocker A (Stock in −70° C.); then prepare 12×1:2 serial dilutions in 1% Blocker A • 2. The top starting final concentration on MSD plate is 320 ng/mL. These dilutions correspond to a final concentration of 320, 160, 80, 40, 20, 10, 5, 2.5, 1.25, 0.625, 0.312, 0.156 ng/mL.
Dilution Plate • 1. Add 80 μL of 1% Assay buffer to all wells except columns 1/24 (standards) with Multidrop Combi • 2. Add diluted standards to columns 1 and 24 • 3. Centrifuge dilution plates 1200 rpm briefly
Cell Plate • 1. Aspirate columns which will have the standards from the cell plates in the hood using 16-pin aspirator
Prepare Human Neutrophil Elastase (hNE) • 1. Prepare 1 μg/mL Human Neutrophil Elastase by diluting in 1% Blocker A. • a. Small 100 μg vial—add 1 mL PBS (100 μg/mL) • i. This can then be diluted 1:100 in 1% Assay Buffer for a final 1 μg/mL concentration
MSD—Add hNE (20 μL/well) • 1. After the MSD plate has blocked for at least 1 hour, wash plate 1× with 50 μL Wash buffer (PBS+0.5% Tween 20) and then add 20 μL hNE to each well
Bravo—Cell Plate—Dilution Plate—MSD Plate
Using the Bravo aspirate 10 μL from the cell plate, transfer to the dilution plate (9-fold dilution)
• 1. Mix 25 μL 3×, then aspirate 5 μL, transfer to MSD plate (5-fold dilution) • 2. Mix 10 μL 3×. Total dilution is 45 fold. • 3. Shake plates at 600 rpm for 1.5 hours
Add Functional detection hNE antibody • 1. Wash plate 1× with wash buffer • 2. […]
Regarding `[H][C@]1(C(=O)O)C[C@]2(C1)C[C@@]([H])(c1c(C3CCOCC3)n(-c3ccc(F)cc3)c3cc4cn[nH]c4cc31)C2` (single isomer, unassigned) [Compound 109], the concentration giving a half-maximal response (EC50) fell in the range of 1.16 to 3 µM.

For `[H][C@]1(C(=O)O)C[C@]2(C1)C[C@]([H])(c1c(C3CCOCC3)n(-c3ccc(F)cc3)c3cc4cn[nH]c4cc31)C2` (single isomer, unassigned) [Compound 110], the EC50 lay within 1.16 to 3 µM.

As for `C[C@]1(C(=O)O)C[C@@H](c2c(C3CCOCC3)n(-c3ccc(F)cc3)c3cc4cn[nH]c4cc32)C1` (single isomer, unassigned) [Compound 114], the EC50 was greater than 3 µM.

On to `C[C@]1(C(=O)O)C[C@H](c2c(C3CCOCC3)n(-c3ccc(F)cc3)c3cc4cn[nH]c4cc32)C1` (single isomer, unassigned) [Compound 115], for which the concentration giving a half-maximal response (EC50) was in the range of 1.16 to 3 µM.

Regarding `Cc1cc(-n2c(C3CCOCC3)c(C3CC4(CC(C(=O)O)C4)C3)c3cc4[nH]nc(C)c4cc32)ccc1F` (single isomer, unassigned) [Compound 127, 6-[5-(4-fluoro-3-methyl-phenyl)-3-methyl-6-tetrahydropyran-4-yl-1H-pyrrolo[2,3-f]indazol-7-yl]spiro[3.3]heptane-2-carboxylic acid], the EC50 was less than 1.16 µM.

As for `Cc1cc(-n2c(C3CCOCC3)c(C3CC4(CC(C(=O)O)C4)C3)c3cc4[nH]nc(C)c4cc32)ccc1F` (single isomer, unassigned) [Compound 128, 6-[5-(4-fluoro-3-methyl-phenyl)-3-methyl-6-tetrahydropyran-4-yl-1H-pyrrolo[2,3-f]indazol-7-yl]spiro[3.3]heptane-2-carboxylic acid], the 50% effective concentration (EC50) was 1.16 to 3 µM.

Consider `O=C(O)C1CC2(C1)CC(c1c(C3CCOCC3)n(-c3ccc(F)cc3)c3cc4cn[nH]c4c(F)c13)C2` (single isomer, unassigned) [Compound 136, 6-[8-fluoro-5-(4-fluorophenyl)-6-tetrahydropyran-4-yl-1H-pyrrolo[2,3-f]indazol-7-yl]spiro[3.3]heptane-2-carboxylic acid], for which the EC50 was less than 1.16 µM.

`O=C(O)C1CC2(C1)CC(c1c(C3CCOCC3)n(-c3ccc(F)cc3)c3cc4cn[nH]c4c(F)c13)C2` (single isomer, unassigned) [Compound 137, 6-[8-fluoro-5-(4-fluorophenyl)-6-tetrahydropyran-4-yl-1H-pyrrolo[2,3-f]indazol-7-yl]spiro[3.3]heptane-2-carboxylic acid]: the concentration giving a half-maximal response (EC50) was less than 1.16 µM.

Consider `O=C(O)C1CC2(C1)CC(c1c(C3CCOC3)n(-c3ccc(F)cc3)c3cc4cn[nH]c4cc13)C2` (single isomer, unassigned) [Compound 141, 6-[5-(4-fluorophenyl)-6-tetrahydrofuran-3-yl-1H-pyrrolo[2,3-f]indazol-7-yl]spiro[3.3]heptane-2-carboxylic acid], for which the concentration giving a half-maximal response (EC50) was greater than 3 µM.

For `O=C(O)C1CC2(C1)CC(c1c(C3CCOC3)n(-c3ccc(F)cc3)c3cc4cn[nH]c4cc13)C2` (single isomer, unassigned) [Compound 142, 6-[5-(4-fluorophenyl)-6-tetrahydrofuran-3-yl-1H-pyrrolo[2,3-f]indazol-7-yl]spiro[3.3]heptane-2-carboxylic Acid], the EC50 is greater than 3 µM.

Regarding `CC(C)c1c(CCC(=O)OC2O[C@H](C(=O)O)[C@@H](O)[C@H](O)[C@H]2O)c2cc3[nH]ncc3cc2n1-c1ccc(F)cc1` (stereo in doubt) [Compound 173, (2S,3S,4S,5R)-6-[3-[5-(4-fluorophenyl)-6-isopropyl-1H-pyrrolo[2,3-f]indazol-7-yl]propanoyloxy]-3,4,5-trihydroxy-tetrahydropyran-2-carboxylic Acid], the 50% effective concentration (EC50) was greater than 3 µM.

For `CC(C)c1c(CCC(=O)N[C@@H]2C(=O)NC[C@H]2O)c2cc3[nH]ncc3cc2n1-c1ccc(F)cc1` (stereo in doubt) [Compound 211, 3-[5-(4-fluorophenyl)-6-isopropyl-1H-pyrrolo[2,3-f]indazol-7-yl]-N-[(3S,4R)-4-hydroxy-2-oxo-pyrrolidin-3-yl]propanamide], the EC50 is greater than 3 µM.
